Laboratory results as given in patent US7932031B2, “Methods for determining sensitivity to microtubule-stabilizing agents comprising ixabepilone by measuring the level of estrogen receptor 1” (Bristol-Myers Squibb Company, priority 2004, dated 2011).

Test system: invasive stage IIA-IIIB breast adenocarcinoma
Assay: CA163-080 exploratory genomic phase II study, ixabepilone as neoadjuvant treatment, pathologic complete response (Sataloff classification)
Format: in vivo, human
Conditions: breast cancer patients, 40 mg/m^2 3-hour infusion on Day 1, up to four 21-day cycles
Method: CA163-080 is an exploratory genomic phase II study that was conducted in breast cancer patients who received ixabepilone as a neoadjuvant treatment. The primary objective of this study was to identify predictive markers of response to ixabepilone through gene expression profiling of pre-treatment breast cancer biopsies. Patients with invasive stage IIA-IIIB breast adenocarcinoma (tumor size≧3 cm diameter) received 40 mg/m^2 ixabepilone as a 3-hour infusion on Day 1 for up to four 21-day cycles, followed by surgery within 3-4 weeks of completion of chemotherapy. A total of 164 patients were enrolled in this study. Biopsies for gene expression analysis were obtained both pre- and post-treatment. […]
Pathological response was assessed using the Sataloff classification system (D. Sataloff et al., J. Am. Coll. Surg., 180(3):297-306 (1995)) and used as an end point for the pharmacogenomic analysis. The pathologic response was evaluated in the primary tumor site at the end of treatment and prior to surgery by assessing histologic changes compared with baseline as following: At the primary tumor site, cellular modifications were evaluated in both the infiltrating tumoral component and in the possible ductal component, to determine viable residual infiltrating component (% of total tumoral mass); residual ductal component (% of total tumoral mass); the mitotic index. […]

## C/C(=C\c1csc(C)n1)[C@@H]1C[C@@H]2O[C@]2(C)CCC[C@H](C)[C@H](O)[C@@H](C)C(=O)C(C)(C)[C@@H](O)CC(=O)N1 [ixabepilone]
The other sites (excluding Russian sites 16, 24 and 25)
  pCR response rate: 19.8%
Tumors from the three Russian sites (16, 24 and 25)
  pCR response rate: 17.2%
